Patent US12180193B2, “Accelerating fibrosarcoma protein degrading compounds and associated methods of use” (Arvinas Operations, Inc., priority 2020, dated 2024)

Columns and labels:
[1] = molecular target: T1, BRAF V600E (Homo sapiens, UniProt P15056, V600E); assay: Cellular assay of target protein degradation, T-Rex 293 cells stably transfected with HA-BRAF_V600E (HA immunofluorescence, high content imaging); assay type: cell-based; details: T-Rex 293 HA-BRAF V600E; for DC50: half maximal degradation, read-out: BRaf V600E DC50; for Dmax: maximum degradation observed
T1 construct: expressed in transfected cells
T1 sequence (P15056 whole entry V600E): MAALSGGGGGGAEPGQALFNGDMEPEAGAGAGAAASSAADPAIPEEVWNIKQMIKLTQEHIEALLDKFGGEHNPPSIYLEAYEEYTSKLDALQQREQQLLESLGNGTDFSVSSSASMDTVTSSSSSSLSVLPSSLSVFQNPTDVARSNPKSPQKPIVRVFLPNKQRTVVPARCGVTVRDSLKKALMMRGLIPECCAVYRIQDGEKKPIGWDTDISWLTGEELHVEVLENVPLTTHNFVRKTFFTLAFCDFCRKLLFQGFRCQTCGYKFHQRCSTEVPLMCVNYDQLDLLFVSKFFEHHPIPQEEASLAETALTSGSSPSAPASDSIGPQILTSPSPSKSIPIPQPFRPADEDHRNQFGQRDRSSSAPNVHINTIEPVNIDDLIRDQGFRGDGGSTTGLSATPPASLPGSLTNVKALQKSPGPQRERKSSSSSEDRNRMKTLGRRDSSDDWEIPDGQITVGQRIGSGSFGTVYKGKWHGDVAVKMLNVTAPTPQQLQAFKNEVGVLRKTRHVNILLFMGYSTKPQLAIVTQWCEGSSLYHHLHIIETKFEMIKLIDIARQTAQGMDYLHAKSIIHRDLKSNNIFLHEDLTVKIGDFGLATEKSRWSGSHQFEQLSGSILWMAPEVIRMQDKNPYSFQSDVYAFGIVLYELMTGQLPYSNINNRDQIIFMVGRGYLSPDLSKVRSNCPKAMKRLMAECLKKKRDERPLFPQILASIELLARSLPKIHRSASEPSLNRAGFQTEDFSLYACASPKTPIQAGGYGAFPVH
How it was run: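 Read-out is anti-HA immunofluorescence quantified by high-content imaging, giving half-maximal degradation concentration (DC50) and maximum degradation (Dmax, percent of control). Cells expressed the construct under 1 ng/mL doxycycline and received compound (1 μM to 0.1 nM final, 0.1% DMSO) for 24 h at 37 °C.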

[2] = molecular target: T2, BRAF G466V (Homo sapiens, UniProt P15056, G466V); assay: Cellular assay of target protein degradation, T-Rex 293 cells stably transfected with HA-BRAF G466V (HA immunofluorescence, high content imaging); assay type: cell-based; details: T-Rex 293 HA-BRAF G466V; for DC50: half maximal degradation, read-out: BRaf G466V DC50; for Dmax: maximum degradation observed
T2 construct: expressed in transfected cells
T2 sequence (P15056 whole entry G466V): as the sequence (P15056 whole entry V600E) above, with G466V, E600V counted along it
How it was run: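 First, stably transfected T-Rex 293 cells were plated with 0.75 ng/mL doxycycline and grown for 24 hours. Next, compound (final 30 nM to 3 pM, 0.1% DMSO) was added for another 24 hours at 37° C. Finally, cells were fixed, stained for HA and imaged.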

DC50 [1] [nM]	Dmax [1] [%]	DC50 [2] [nM]	Dmax [2] [%]	SMILES
50 to 500	35 to 70	1 to 10	35 to 70	COc1cc([C@@H](O)CCN2CCN(c3ccc(-c4cnc5[nH]cc(C(=O)c6c(F)ccc(NS(=O)(=O)N7CC[C@@H](F)C7)c6F)c5c4)cc3)CC2)cc2c1C(=O)N([C@@H]1CCC(=O)NC1=O)C2 [Compound 296, (3R)-N-{3-[5-(4-{4-[(3S)-3-{2-[(3R)-2,6-dioxopiperidin-3-yl]-7-methoxy-1-oxo-2,3-dihydro-1H-isoindol-5-yl}-3-hydroxypropyl]piperazin-1-yl}phenyl)-1H-pyrrolo[2,3-b]pyridine-3-carbonyl]-2,4-difluorophenyl}-3-fluoropyrrolidine-1-sulfonamide]
5 to 50	35 to 70	1 to 10	> 70	O=C1CCC(N2Cc3cc(N4CCN(C[C@@H](O)Cc5ccc(-c6cnc7[nH]cc(C(=O)c8c(F)ccc(NS(=O)(=O)N9CC[C@@H](F)C9)c8F)c7c6)cc5)CC4)ccc3C2=O)C(=O)N1 (stereo partly drawn) [Compound 98, (3R)-N-[3-(5-{4-[(2S)-3-{4-[2-(2,6-dioxopiperidin-3-yl)-1-oxo-2,3-dihydro-1H-isoindol-5-yl]piperazin-1-yl}-2-hydroxypropyl]phenyl}-1H-pyrrolo[2,3-b]pyridine-3-carbonyl)-2,4-difluorophenyl]-3-fluoropyrrolidine-1-sulfonamide]
50 to 500	35 to 70	1 to 10	35 to 70	O=C1CCC(N2Cc3cc(N4CCC(N5CCC56CN(c5ccc(-c7cnc8[nH]cc(C(=O)c9c(F)ccc(NS(=O)(=O)N%10CC[C@@H](F)C%10)c9F)c8c7)cc5)C6)CC4)ccc3C2=O)C(=O)N1 (stereo partly drawn) [Example 9]
> 500		> 30		O=C1CCC(NC(=O)c2ccc(CCCN3CC4(C3)CN(c3ccc(-c5cnc6[nH]cc(C(=O)c7c(F)ccc(NS(=O)(=O)N8CC[C@@H](F)C8)c7F)c6c5)cc3)C4)cc2F)C(=O)N1 (stereo partly drawn) [Compound 356, 4-{3-[6-(4-{3-[2,6-difluoro-3-({[(3R)-3-fluoropyrrolidin-1-yl]sulfonyl}amino)benzoyl]-1H-pyrrolo[2,3-b]pyridin-5-yl}phenyl)-2,6-diazaspiro[3.3]heptan-2-yl]propyl}-N-(2,6-dioxopiperidin-3-yl)-2-fluorobenzamide]
5 to 50	35 to 70	1 to 10	35 to 70	O=C1CCC(c2ccc(N3CC4(CN(CC5CCN(c6ccc(-c7cnc8[nH]cc(C(=O)c9c(F)ccc(NS(=O)(=O)N%10CC[C@@H](F)C%10)c9F)c8c7)cc6)CC5)C4)C3)cc2)C(=O)N1 (stereo partly drawn) [Compound 368, (3R)-N-[3-(5-{4-[4-({6-[4-(2,6-dioxopiperidin-3-yl)phenyl]-2,6-diazaspiro[3.3]heptan-2-yl}methyl)piperidin-1-yl]phenyl}-1H-pyrrolo[2,3-b]pyridine-3-carbonyl)-2,4-difluorophenyl]-3-fluoropyrrolidine-1-sulfonamide]
5 to 50	35 to 70	1 to 10	35 to 70	O=C1CC[C@H](N2Cc3cc(C[C@@H](O)CN4CCC(c5ccc(-c6cnc7[nH]cc(C(=O)c8c(F)ccc(NS(=O)(=O)N9CC[C@@H](F)C9)c8F)c7c6)cc5)CC4)ccc3C2=O)C(=O)N1 [Compound 107]
5 to 50	35 to 70	< 1	35 to 70	CC(C)N(C)S(=O)(=O)Nc1ccc(F)c(C(=O)c2c[nH]c3ncc(-c4ccc(N5CCC(CN6CCC(c7ccc8c(c7)CN([C@H]7CCC(=O)NC7=O)C8=O)CC6)CC5)cc4)cc23)c1F [Compound 208, (3S)-3-(5-{1-[(1-{4-[3-(2,6-difluoro-3-{[methyl(propan-2-yl)sulfamoyl]amino}benzoyl)-1H-pyrrolo[2,3-b]pyridin-5-yl]phenyl}piperidin-4-yl)methyl]piperidin-4-yl}-1-oxo-2,3-dihydro-1H-isoindol-2-yl)piperidine-2,6-dione]
50 to 500	< 35	1 to 10	35 to 70	O=C1CCC(N2Cc3cc(N4CCC(CN5CCN(C6(c7ccc(-c8cnc9[nH]cc(C(=O)c%10c(F)ccc(NS(=O)(=O)N%11CC[C@@H](F)C%11)c%10F)c9c8)cc7)CC6)CC5)CC4)ccc3C2=O)C(=O)N1 (stereo partly drawn) [Compound 162, (3R)-N-{3-[5-(4-{1-[4-({1-[2-(2,6-dioxopiperidin-3-yl)-1-oxo-2,3-dihydro-1H-isoindol-5-yl]piperidin-4-yl}methyl)piperazin-1-yl]cyclopropyl}phenyl)-1H-pyrrolo[2,3-b]pyridine-3-carbonyl]-2,4-difluorophenyl}-3-fluoropyrrolidine-1-sulfonamide]
5 to 50	< 35	1 to 10	35 to 70	O=C1CC[C@@H](NC(=O)c2cc(C3CCN(CC4CCN(c5ccc(-c6cnc7[nH]cc(C(=O)c8c(F)ccc(NS(=O)(=O)N9CC[C@@H](F)C9)c8F)c7c6)cc5)CC4)CC3)ccc2F)C(=O)N1 [Compound 197, 5-(1-{[1-(4-{3-[2,6-difluoro-3-({[(3R)-3-fluoropyrrolidin-1-yl]sulfonyl}amino)benzoyl]-1H-pyrrolo[2,3-b]pyridin-5-yl}phenyl)piperidin-4-yl]methyl}piperidin-4-yl)-N-[(3R)-2,6-dioxopiperidin-3-yl]-2-fluorobenzamide]
5 to 50	35 to 70	1 to 10	> 70	O=C1CCC(N2Cc3cc(OCCCCN4CCN(c5ncc(-c6cnc7[nH]cc(C(=O)c8c(F)ccc(NS(=O)(=O)N9CC[C@@H](F)C9)c8F)c7c6)cn5)CC4)ccc3C2=O)C(=O)N1 (stereo partly drawn) [Compound 121, (3R)-N-[3-(5-{2-[4-(4-{[2-(2,6-dioxopiperidin-3-yl)-1-oxo-2,3-dihydro-1H-isoindol-5-yl]oxy}butyl)piperazin-1-yl]pyrimidin-5-yl}-1H-pyrrolo[2,3-b]pyridine-3-carbonyl)-2,4-difluorophenyl]-3-fluoropyrrolidine-1-sulfonamide]
5 to 50	35 to 70	10 to 30	35 to 70	O=C1CCC(N2Cc3cc(N4CC5(CC(CN6CCc7cc(-c8cnc9[nH]cc(C(=O)c%10c(F)ccc(NS(=O)(=O)N%11CC[C@@H](F)C%11)c%10F)c9c8)ccc7C6)C5)C4)ccc3C2=O)C(=O)N1 (stereo partly drawn) [Compound 8, (3R)-N-(3-{5-[2-({2-[2-(2,6-dioxopiperidin-3-yl)-1-oxo-2,3-dihydro-1H-isoindol-5-yl]-2-azaspiro[3.3]heptan-6-yl}methyl)-1,2,3,4-tetrahydroisoquinolin-6-yl]-1H-pyrrolo[2,3-b]pyridine-3-carbonyl}-2,4-difluorophenyl)-3-fluoropyrrolidine-1-sulfonamide]
5 to 50	35 to 70	1 to 10	> 70	O=C1CCC(N2Cc3cc(CCCCN4CCC(c5ccc(-c6cnc7[nH]cc(C(=O)c8c(F)ccc(NS(=O)(=O)N9CC[C@@H](F)C9)c8F)c7c6)cc5)CC4)ccc3C2=O)C(=O)N1 (stereo partly drawn) [Compound 332, (3R)-N-(3-{5-[4-(1-{4-[2-(2,6-dioxopiperidin-3-yl)-1-oxo-2,3-dihydro-1H-isoindol-5-yl]butyl}piperidin-4-yl)phenyl]-1H-pyrrolo[2,3-b]pyridine-3-carbonyl}-2,4-difluorophenyl)-3-fluoropyrrolidine-1-sulfonamide]
> 500		10 to 30	< 35	O=C1CC[C@@H](NC(=O)c2ccc(N3CCC(CN4CC5(C4)CN(c4ccc(-c6cnc7[nH]cc(C(=O)c8c(F)ccc(NS(=O)(=O)N9CC[C@@H](F)C9)c8F)c7c6)cc4)C5)CC3)cc2F)C(=O)N1 [Compound 30, 4-(4-{[6-(4-{3-[2,6-difluoro-3-({[(3R)-3-fluoropyrrolidin-1-yl]sulfonyl}amino)benzoyl]-1H-pyrrolo[2,3-b]pyridin-5-yl}phenyl)-2,6-diazaspiro[3.3]heptan-2-yl]methyl}piperidin-1-yl)-N-[(3R)-2,6-dioxopiperidin-3-yl]-2-fluorobenzamide]
5 to 50	35 to 70	1 to 10	> 70	O=C1CCC(N2Cc3cc(N4CCN(CCCC5CCN(c6ccc(-c7cnc8[nH]cc(C(=O)c9c(F)ccc(NS(=O)(=O)N%10CC[C@@H](F)C%10)c9F)c8c7)cc6)CC5)CC4)ccc3C2=O)C(=O)N1 (stereo partly drawn) [Compound 135, (3R)-N-[3-(5-{4-[4-(3-{4-[2-(2,6-dioxopiperidin-3-yl)-1-oxo-2,3-dihydro-1H-isoindol-5-yl]piperazin-1-yl}propyl)piperidin-1-yl]phenyl}-1H-pyrrolo[2,3-b]pyridine-3-carbonyl)-2,4-difluorophenyl]-3-fluoropyrrolidine-1-sulfonamide]

SMILES	DC50 [1] [nM]	Dmax [1] [%]	DC50 [2] [nM]	Dmax [2] [%]
O=C1CCC(N2Cc3cc(C4CCN(C[C@@H]5C[C@H]6CC[C@@H](C5)N6c5ccc(-c6cnc7[nH]cc(C(=O)c8c(F)ccc(NS(=O)(=O)N9CC[C@@H](F)C9)c8F)c7c6)cc5)CC4)ccc3C2=O)C(=O)N1 (stereo partly drawn) [Compound 180, (3R)-N-[3-(5-{4-[(1R,3S,5S)-3-({4-[2-(2,6-dioxopiperidin-3-yl)-1-oxo-2,3-dihydro-1H-isoindol-5-yl]piperidin-1-yl}methyl)-8-azabicyclo[3.2.1]octan-8-yl]phenyl}-1H-pyrrolo[2,3-b]pyridine-3-carbonyl)-2,4-difluorophenyl]-3-fluoropyrrolidine-1-sulfonamide]	5 to 50	35 to 70	1 to 10	> 70
